From US20050260748A1, “Adult stem cells and uses thereof” (Michigan State University, priority 2004, published 2005)

What was measured:
[1] = system: mesenchymal stem cells (adipose stem cells); experiment: Effect of lovastatin on formation of calcified ECM during osteogenic differentiation of adipose stem cells; format: cell-based, human
Description: Adipose stem cells were tested for their ability to differentiate into osteocytes by culturing the stem cells in a medium composed of a modified MEM (Chang et al. (1981) Somatic Cell Genetics 7: 235) with 10% FBS and supplemented with 0.1 μM dexamethasone, 50 μM L-ascorbate-2-phosphate, and 10 mM […] disodium for about two to four weeks. Osteogenesis was identified by the presence of calcified extracellular matrix (ECM) in unstained cells (FIG. 32(a)) or using Von Kossa staining (FIG. 32(b)), the quantitative measurement of calcium in calcified ECM (Zuk et al. (2001) Tissue Engineering 7: 211), and the quantitative measurement of calcium in culture medium.
Osteoporosis is a disorder that occurs when the amount of bone removed from the skeleton by bone-resorbing osteoclasts exceeds the amount of bone formed by osteoblasts. Statins may decrease bone resorption by preventing osteoclast activation that is mediated by farnesyl-pp and geranylgeranyl-pp (Cruz et al., (2002) Cleveland Clinic J. Med. 69:277-288). Experiments were performed to test the effect of lovastatin on the formation of calcified ECM using adipocyte cells that were differentiated into osteocytes as described supra. […]

L1SV1A1 cells = experiment: Albumin expression by immunostaining in immortal liver cell line cultured with hepatocyte growth factor; format: cell-based, human; details: HGF 20 ng/ml in modified Eagle's MEM with high calcium; days after initiation of induction
Description: Both immunostaining and Western blotting were used to characterize gene expression for clonally derived liver cell culture. For immunostaining, the cells grown in 35 mm plates were washed with phosphate-buffered saline (PBS) and fixed with 4% paraformaldehyde in PBS. After rinsing with PBS, the cells were permeabilized (0.5% Triton® X-100, 2% BSA, and 0.05% NaN3 in PBS) for 10 minutes. The cells were then incubated with the primary antibody diluted to the required concentration in PBS/Triton® X-100/BSA overnight at room temperature. After rinsing with PBS, the cells were incubated with a secondary antibody conjugated with FITC or Cy3 in PBS/Triton/BSA buffer for 1 hour at room temperature. […] After thoroughly washing the cells with PBS, the phase image and fluorescence of cells was observed and recorded using a Nikon Elipse TE 300 microscope connected to a digital camera and computer. […]
Furthermore, cells of the immortal liver cell line L1SV1A1, derived from HL1-1 (described infra), that were cultured in the modified Eagle's MEM (Chang et al. (1981) Somat. Cell Genet. 7: 235-53) containing hepatocyte growth factor (HGF) (He et al. (2003) Differentiation 71: 281-90) (20 ng/ml) expressed the hepatocyte protein, albumin, as detected by immunostaining (FIGS. 21(a)-21(c)). […]

Compound | formation of calcified ECM (microscopic inspection) ([1]; 0.2 μM lovastatin added with osteogenic medium, compared to induced control cultures without lovastatin) | total calcium ([1]; 0.2 μM lovastatin in osteogenic medium vs induced control, FIG. 35) | expression of the hepatocyte protein albumin (immunostaining) (L1SV1A1 cells)
CC[C@H](C)C(=O)O[C@H]1C[C@@H](C)C=C2C=C[C@H](C)[C@H](CC[C@@H]3C[C@@H](O)CC(=O)O3)[C@H]21 [lovastatin] | significantly less formation of calcified ECM | confirmed this observation | 
hepatocyte growth factor: hepatocyte growth factor (HGF), used as hepatocyte differentiation agent |  |  | detectable at 33 days but not at 22 days
